Experimental data taken from patent US4366162A, “Aryl ethers of N-alkyl-piperidines and acid addition salts thereof” (AB Ferrosan, priority 1977, dated 1982).
In brackets after ≈: the same amount, converted by molar mass. Read-outs that look alike come from different tables or passages of the source.

Assays:
[1] = tested on: apomorphine induced emesis; experiment: Anti-apomorphine test: antagonism of apomorphine induced emesis; format: in vivo, dogs; conditions: Canis lupus familiaris, sc, read-out: ED50, Anti-apomorphine test
Experimental: All typical chloropromazine-like neuroleptics are powerful antagonists of apomorphine induced emesis in dogs by virtue of their blocking action on the chemo-emetic trigger zone. The compounds listed in Table I were administered subcutaneously. The animals were challenged half an hour after subcutaneous administration with a standard dose of 0.06 mg/kg of apomorphine hydrochloride (subcutaneously). […] The ED50 -values expressed in milligrams per kilogram body weight in the anti-amphetamine test, in the anti-apomorphine test and in the inhibition of aggression test are presented in Table I.

[2] = tested on: isolation induced aggressive behaviour; experiment: Isolation induced aggressive behaviour test (inhibition of aggression); format: in vivo, Male albino mice; conditions: Mus musculus, sc, 1 h, read-out: ED50, Inhibition aggression test
Experimental: Male albino mice were used. Tests were conducted 60 minutes after subcutaneous drug administration.
(§1) The ED50 -values expressed in milligrams per kilogram body weight in the anti-amphetamine test, in the anti-apomorphine test and in the inhibition of aggression test are presented in Table I.

[3] = tested on: acetylcholine induced contraction of guinea pig ileum; experiment: Anticholinergic activity: acetylcholine induced contraction of guinea pig ileum; conditions: acetylcholine 0.02 μg/ml, 50% inhibition of the contraction
[4] = tested on: histamine induced contraction of guinea pig ileum; experiment: Antihistaminic activity: histamine induced contraction of guinea pig ileum; conditions: histamine 0.2 μg/ml, 50% inhibition of the contraction
[5] = tested on: amphetamine induced behavioural stereotypies; experiment: Anti-amphetamine test: inhibition of compulsory gnawing and chewing responses to amphetamine; format: in vivo, Sprague Dawley female rats; conditions: Rattus norvegicus, sc, read-out: ED50, Anti-amphetamine test
Experimental: Conventional types of neuroleptics are potent inhibitors of amphetamine induced behavioural stereotypies. One determines in Sprague Dawley female rats the ability of subcutaneously administered compounds to inhibit compulsory gnawing and chewing responses to a subcutaneous dose of 10 mg/kg of amphetamine administered half an hour after the compound to be tested. The new compounds of formula I are weak antagonists in this test.
as §1

[6] = tested on: serotonin induced contraction of the rat ileum; experiment: Antiserotoninergic activity: serotonin induced contraction of the rat ileum; conditions: serotonin 220 ng/ml, 50% inhibition of the contraction
Experimental: They show antiserotoninergic activity evaluated from the effects on serotonin (220 ng/ml) induced contraction of the rat ileum.

[7] = male albino mice, 60 minutes after subcutaneous administration

SMILES | ED50 [1] [mg/kg] | ED50 [2] [mg/kg] | ED50, Anticholinergic activity [3] | ED50, Antihistaminic activity [4] | ED50 [5] [mg/kg] | ED50, Antiseroto-ninergic activity [6] | ED50 ([1]; dogs, subcutaneous, half an hour before 0.06 mg/kg apomorphine hydrochloride s.c.) [mg/kg] | ED50 [2, 7] [mg/kg] | ED50 ([5]; rats, subcutaneous, half an hour before 10 mg/kg amphetamine s.c.) [mg/kg]
CN(C)CCCN1c2ccccc2Sc2ccc(Cl)cc21 [Chlorpromazine, chlorpromazine] | 0.7 | 0.4 | 1,7 μg/ml | 0,03 μg/ml | 1.2 | 6 µg/mL (≈ 18.8 µM) | – | – | –
O=C(CCCN1CCC(O)(c2ccc(Cl)cc2)CC1)c1ccc(F)cc1 [Haloperidol, haloperidol] | – | 0.8 | – | – | 0.03 | – | – | – | –
COc1cc(C(C)=O)ccc1OCCCN1CCC(O)(C(=O)c2ccc(F)cc2)CC1 [I, 1-[3-(p-acetyl-o-methoxyphenoxy)-propyl]-4-(p-fluorobenzoyl)-4-hydroxypiperidine] | – | – | > 100 µg/mL | 0,06 μg/ml | – | 0,1 μg/ml | 7.1 | 0.5 | 20
CCC(=O)OC1(C(=O)c2ccc(F)cc2)CCN(CCCOc2ccc(C(C)=O)cc2OC)CC1 [III] | – | – | – | – | – | – | – | 2 | –
COc1cc(C(C)=O)ccc1OCCCCN1CCC(O)(C(=O)c2ccc(F)cc2)CC1 [II] | – | – | – | – | – | – | – | 1.5 | –
